Experimental data: patent US8569292B2, “Cyclic inhibitors of 11β-hydroxysteroid dehydrogenase 1” (Vitae Pharmaceuticals, Inc., priority 2008, dated 2013)

Legend:
11β-HSD1 [1] = target: T1, 11β-HSD1 (Homo sapiens, UniProt P28845); assay: biochemical; conditions: for inhibition at 0.1 µM: read-out: Average % inhibition at 100 nM
11β-HSD1 [2] = target: T1, 11β-HSD1; assay: Biological Test Example 4: microsomal 11β-HSD1 in the presence of 50% human plasma; conditions: for Shift: IC50 in Test Example 4 divided by IC50 in Test Example 1
[3] = Biological Test Example 1 IC50 (nM)
[4] = IC50 Range, Biological Test Example 1

T1 sequence (P28845 whole entry): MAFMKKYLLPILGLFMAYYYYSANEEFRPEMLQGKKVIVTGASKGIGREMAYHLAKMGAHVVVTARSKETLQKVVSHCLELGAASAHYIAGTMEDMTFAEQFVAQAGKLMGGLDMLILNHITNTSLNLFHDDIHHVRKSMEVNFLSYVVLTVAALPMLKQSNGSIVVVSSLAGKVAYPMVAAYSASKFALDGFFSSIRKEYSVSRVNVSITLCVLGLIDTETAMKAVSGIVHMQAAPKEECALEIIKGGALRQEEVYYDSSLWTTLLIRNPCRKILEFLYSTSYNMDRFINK

| IC50 (11β-HSD1 [1]; [3]) [nM] | IC50 (11β-HSD1 [1]; [4]) [nM] | inhibition at 0.1 µM (11β-HSD1 [1]) [%] | IC50 (11β-HSD1 [2]) [nM] | Shift (11β-HSD1 [2]) | Compound |
| --- | --- | --- | --- | --- | --- |
| 0.9 | < 100 | 98.1 | 21.8 | 24.0 | C[C@@H](c1ccc(-c2cccc(N(C)C)n2)cc1)N1CC[C@](CC(C)(C)O)(c2ccccc2)OC1=O [EXAMPLE 30, (S)-3-((S)-1-(4-(6-(dimethylamino)pyridin-2-yl)phenyl)ethyl)-6-(2-hydroxy-2-methylpropyl)-6-phenyl-1,3-oxazinan-2-one] |
| 1.7 | < 100 | 98.3 | 9.9 | – | C[C@@H](c1ccc(-c2ccccn2)cc1)N1CC[C@](CCC(N)=O)(c2ccccc2)OC1=O [EXAMPLE 88, 3-((R)-2-oxo-6-phenyl-3-((S)-1-(4-(pyridin-2-yl)phenyl)ethyl)-1,3-oxazinan-6-yl)propanamide] |
| 2.6 | < 100 | 96.4 | 8.1 | 3.1 | Cc1nccc(-c2ccc([C@H](C)N3CC[C@](CC(C)(C)C#N)(c4ccc(F)cc4)OC3=O)cc2)n1 [EXAMPLE 142, 3-((R)-6-(4-fluorophenyl)-3-((S)-1-(4-(2-methylpyrimidin-4-yl)phenyl)ethyl)-2-oxo-1,3-oxazinan-6-yl)-2,2-dimethylpropanenitrile] |
| 2.7 | < 100 | 89.3 | 13.7 | 5.1 | C[C@@H](c1ccc(-c2ncc(C(=O)NC(C)(C)C)s2)cc1)N1CC[C@](CC(C)(C)O)(c2ccccc2)OC1=O [EXAMPLE 23, N-tert-butyl-2-(4-((S)-1-((S)-6-(2-hydroxy-2-methylpropyl)-2-oxo-6-phenyl-1,3-oxazinan-3-yl)ethyl)phenyl)thiazole-5-carboxamide] |
| 0.9 | < 100 | 94.3 | 12.9 | – | C[C@@H](c1ccc(-c2ccccn2)cc1)N1CC[C@](CCO)(c2ccccc2)OC1=O [EXAMPLE 85, (S)-6-(2-hydroxyethyl)-6-phenyl-3-((S)-1-(4-(pyridin-2-yl)phenyl)ethyl)-1,3-oxazinan-2-one] |
| 0.5 | < 100 | 98.5 | 7.9 | 16.6 | Cc1cc(-c2ccc([C@H](C)N3CC[C@](CCCNS(C)(=O)=O)(c4ccccc4)OC3=O)cc2)ccn1 [EXAMPLE 99, N-(3-((R)-3-((S)-1-(4-(2-methylpyridin-4-yl)phenyl)ethyl)-2-oxo-6-phenyl-1,3-oxazinan-6-yl)propyl)methanesulfonamide] |
| 1.9 | < 100 | 96.8 | 11 | – | C[C@@H](c1ccc(-c2cccnc2)cc1)N1CC[C@](CCC(N)=O)(c2ccc(F)cc2)OC1=O [EXAMPLE 41, 3-((R)-6-(4-fluorophenyl)-2-oxo-3-((S)-1-(4-(pyridin-3-yl)phenyl)ethyl)-1,3-oxazinan-6-yl)propanamide] |
| 1.5 | < 100 | 96.7 | 13.3 | 8.7 | Cc1nccc(-c2ccc([C@H](C)N3CC[C@](CCCO)(c4ccc(F)cc4)OC3=O)cc2)n1 [EXAMPLE 126, (R)-6-(4-fluorophenyl)-6-(3-hydroxypropyl)-3-((S)-1-(4-(2-methylpyrimidin-4-yl)phenyl)ethyl)-1,3-oxazinan-2-one] |
| 0.5 | < 100 | 97.3 | 12.7 | 23.7 | COc1ccc(-c2ccc([C@H](C)N3CC[C@](CCO)(c4ccccc4)OC3=O)cc2)cn1 [EXAMPLE 92, (S)-6-(2-hydroxyethyl)-3-((S)-1-(4-(6-methoxypyridin-3-yl)phenyl)ethyl)-6-phenyl-1,3-oxazinan-2-one] |
| 4.8 | < 100 | 90.7 | 9.3 | 1.9 | C[C@@H](c1ccc(-c2cnc(C(C)(C)O)nc2)cc1)N1CC[C@](CC(C)(C)O)(c2ccccc2)OC1=O [EXAMPLE 31, (S)-6-(2-hydroxy-2-methylpropyl)-3-((S)-1-(4-(2-(2-hydroxypropan-2-yl)pyrimidin-5-yl)phenyl)ethyl)-6-phenyl-1,3-oxazinan-2-one] |
| 5.6 | < 100 | 88.1 | 14.5 | 2.6 | Cc1cc(-c2ccc([C@H](C)N3CC[C@](CC(C)(C)O)(c4ccc(F)cc4)OC3=O)cc2)cc[n+]1[O-] [EXAMPLE 124, 4-(4-((S)-1-((S)-6-(4-fluorophenyl)-6-(2-hydroxy-2-methylpropyl)-2-oxo-1,3-oxazinan-3-yl)ethyl)phenyl)-2-methylpyridine 1-oxide] |
| 1.7 | < 100 | 95.2 | 6.8 | 4.1 | Cc1cn(-c2ncc(-c3ccc([C@H](C)N4CC[C@](CC(C)(C)O)(c5ccccc5)OC4=O)cc3)cn2)c(C)n1 [EXAMPLE 26, (S)-3-((S)-1-(4-(2-(2,4-dimethyl-1H-imidazol-1-yl)pyrimidin-5-yl)phenyl)ethyl)-6-(2-hydroxy-2-methylpropyl)-6-phenyl-1,3-oxazinan-2-one] |
| 0.7 | < 100 | 99.8 | 5.6 | – | Cc1cc(-c2ccc([C@H](C)N3CC[C@](CCO)(c4ccccc4)OC3=O)cc2)ccn1 [EXAMPLE 96, (S)-6-(2-hydroxyethyl)-3-((S)-1-(4-(2-methylpyridin-4-yl)phenyl)ethyl)-6-phenyl-1,3-oxazinan-2-one] |
| 1.1 | < 100 | 96.5 | 5.7 | – | C[C@@H](c1ccc(-c2cccnc2)cc1)N1CC[C@](CCCO)(c2ccc(F)cc2)OC1=O [EXAMPLE 197, (R)-6-(4-fluorophenyl)-6-(3-hydroxypropyl)-3-((S)-1-(4-(pyridin-3-yl)phenyl)ethyl)-1,3-oxazinan-2-one] |
| 0.4 | < 100 | 99.2 | 3.4 | 7.8 | C[C@@H](c1ccc(-c2ncc(C(=O)NC3CC3)s2)cc1)N1CC[C@](CC(C)(C)C#N)(c2ccccc2)OC1=O [EXAMPLE 21, 2-(4-((S)-1-((R)-6-(2-cyano-2-methylpropyl)-2-oxo-6-phenyl-1,3-oxazinan-3-yl)ethyl)phenyl)-N-cyclopropylthiazole-5-carboxamide] |
| 0.96 | < 100 | 98.3 | 18.3 | 19.1 | C[C@@H](c1ccc(-c2ccc(OCCF)nc2)cc1)N1CC[C@](CC(C)(C)O)(c2ccccc2)OC1=O [EXAMPLE 200, (S)-3-((S)-1-(4-(6-(2-fluoroethoxy)pyridin-3-yl)phenyl)ethyl)-6-(2-hydroxy-2-methylpropyl)-6-phenyl-1,3-oxazinan-2-one] |
| 1 | < 100 | 94.3 | 3.9 | – | C[C@@H](c1ccc(-c2ccncc2)cc1)N1CC[C@](CCC(N)=O)(c2ccccc2)OC1=O [EXAMPLE 48, 3-((R)-2-oxo-6-phenyl-3-((S)-1-(4-(pyridin-4-yl)phenyl)ethyl)-1,3-oxazinan-6-yl)propanamide] |
| 1.2 | < 100 | 96.8 | 4.7 | 3.8 | Cc1nccn1-c1ncc(-c2ccc([C@H](C)N3CC[C@](CC(C)(C)O)(c4ccccc4)OC3=O)cc2)cn1 [EXAMPLE 27, (S)-6-(2-hydroxy-2-methylpropyl)-3-((S)-1-(4-(2-(2-methyl-1H-imidazol-1-yl)pyrimidin-5-yl)phenyl)ethyl)-6-phenyl-1,3-oxazinan-2-one] |
| 0.5 | < 100 | 96.7 | 13.5 | 25.5 | Cc1cccc(-c2ccc([C@H](C)N3CC[C@](CCCO)(c4ccccc4)OC3=O)cc2)n1 [EXAMPLE 90, (R)-6-(3-hydroxypropyl)-3-((S)-1-(4-(6-methylpyridin-2-yl)phenyl)ethyl)-6-phenyl-1,3-oxazinan-2-one] |
| 0.9 | < 100 | 98.9 | 3.9 | 4.5 | Cc1ccc(-c2ccc([C@H](C)N3CC[C@](CCCO)(c4ccc(F)cc4)OC3=O)cc2)nn1 [EXAMPLE 114, (R)-6-(4-fluorophenyl)-6-(3-hydroxypropyl)-3-((S)-1-(4-(6-methylpyridazin-3-yl)phenyl)ethyl)-1,3-oxazinan-2-one] |
| 2.4 | < 100 | 94.5 | 42.5 | – | C[C@@H](c1ccc(-c2ncccc2C#N)cc1)N1CC[C@](CC(C)(C)O)(c2ccccc2)OC1=O [EXAMPLE 165, 2-(4-((S)-1-((S)-6-(2-hydroxy-2-methylpropyl)-2-oxo-6-phenyl-1,3-oxazinan-3-yl)ethyl)phenyl)nicotinonitrile] |
| 38.1 | < 100 | 79.9 | 114 | 3.0 | Cc1cc(-c2ccc([C@H](C)N3CC[C@](CCC(=O)O)(c4ccc(F)cc4)OC3=O)cc2)ccn1 [EXAMPLE 77, 3-((R)-6-(4-fluorophenyl)-3-((S)-1-(4-(2-methylpyridin-4-yl)phenyl)ethyl)-2-oxo-1,3-oxazinan-6-yl)propanoic acid] |
| 0.5 | < 100 | 93.9 | 3.7 | 7.7 | C[C@@H](c1ccc(-c2ccc(C#N)cn2)cc1)N1CC[C@](CCCO)(c2ccccc2)OC1=O [EXAMPLE 110, 6-(4-((S)-1-((R)-6-(3-hydroxypropyl)-2-oxo-6-phenyl-1,3-oxazinan-3-yl)ethyl)phenyl)nicotinonitrile] |
| 1.6 | < 100 | 91.9 | 20.8 | 13.1 | C[C@@H](c1ccc(-c2ccccn2)cc1)N1CC[C@](CCC(N)=O)(c2ccc(F)cc2)OC1=O [EXAMPLE 60, 3-((R)-6-(4-fluorophenyl)-2-oxo-3-((S)-1-(4-(pyridin-2-yl)phenyl)ethyl)-1,3-oxazinan-6-yl)propanamide] |
